The subject of series [1] is diabetic male mice (db/db mice). The series is described as follows: blood glucose-lowering effects in mice with hyperglycemic diabetes. The class given is in vivo. The conditions noted are these: for % Inhibition vs. Control / Blood glucose D5: oral once a day for 5 days; for Blood glucose D0: oral. On the procedure: Effects of PPAR compounds on a blood glucose level were evaluated in 7-week-old diabetic male mice (db/db mice). Blood was collected from caudal veins of the diabetic animals to which the drug was administered once a day for 5 consecutive days, and the blood glucose level was then measured with a blood glucose test meter (ACCU CHEK Active®).

Another series has as its target T1, Human PPAR-α (Homo sapiens, UniProt Q07869).
T1 construct: expressed in transfected cells; host or cells: CV-1 (CCL-70, ATCC)
T1 sequence (Q07869 239-466 limits assumed): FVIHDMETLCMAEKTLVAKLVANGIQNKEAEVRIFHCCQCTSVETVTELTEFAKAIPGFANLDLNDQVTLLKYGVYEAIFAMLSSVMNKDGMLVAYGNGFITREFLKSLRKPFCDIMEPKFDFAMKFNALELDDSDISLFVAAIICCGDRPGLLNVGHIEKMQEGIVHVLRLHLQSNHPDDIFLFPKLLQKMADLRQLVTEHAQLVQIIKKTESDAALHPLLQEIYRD
The series is described as follows: transactivation assay (GAL4 chimeric receptor, luciferase) in CV-1 cells. Particulars: for Emax: CV-1, Relative Response % to maximum effects of the positive control drug, read-out: Max % Human PPAR-α; for EC50: CV-1 cells, GAL4 chimeric receptor, 24 hours. Type of series: cell-based. On the procedure:
(§1) Following induction of transient intracellular expression of PPAR-α and -γ, an ability of the inventive compounds to induce transactivation of PPARs via activation of each PPAR was evaluated as an efficacy of the compound (transactivation assay).
(§2) For this assay, the African green monkey kidney cell line CV-1 (CCL-70, ATCC) was used as a test cell line, and PPAR-α and -γ were murine- and human-derived PPARs. Samples used were compounds prepared in Examples 19, 21, 23, 25, 26, 27, 31, 33, 34, 36, 38, 40, 42, 43 and 50. As a positive control drug, 3-4-[2-(2-phenyl-4-methyl-1,3-oxazole)ethyloxy]phenyl-(2S)-[(1-methyl-3-oxo-3-phenyl)propenyl]aminopropionic acid was used that is a PPAR-α or -γ agonist which was once under development and whose clinical trials and studies were suspended at phase III. A chimeric receptor was adopted to circumvent the probable interference due to endogenous receptor activation (Jian-Shen Q. et al., Mol Cell Biol (1995) 15(3):1817-1825). The chimeric receptor was constructed as a fusion of a PPAR-α or -γ ligand-binding domain with a DNA-binding domain of GAL4 which is a yeast transactivator.
(§3) The CV-1 cells were transiently transfected with each of chimeric receptor-expressing DNA constructs and each of DNA constructs comprising 5 copies of the GAL4 DNA-binding domain and capable of inducing expression of firefly luciferase or Renilla luciferase using a Lipofectamine Plus reagent (Invitrogen, USA). After transfection for 3 hours, the culture media were replaced with DMEM containing the above samples and 10% fetal bovine serum. 24 hours later, the firefly luciferase activity and Renilla luciferase activity were continuously assayed while adding an equal amount of a dual luciferase assay reagent (Promega, USA) to the cell-containing media. The transfection efficiency was normalized against Renilla luciferase activity (Motomura W. et al., Int J Cancer (2004) 108(1):41-6). The PPAR-α and -γ activity was determined by calculating Relative Response % to maximum effects of the positive control drug, and conducting multiple dose evaluation of the inventive compounds to calculate EC50, which is the concentration of a drug which produces 50% activation relative to maximum effects of the inventive compounds, by nonlinear regression analysis.

The target in the next series is T2, Mouse PPAR-γ (Mus musculus, UniProt P37238).
T2 construct: expressed in transfected cells; host or cells: CV-1 (CCL-70, ATCC)
T2 sequence (P37238 238-503 limits assumed): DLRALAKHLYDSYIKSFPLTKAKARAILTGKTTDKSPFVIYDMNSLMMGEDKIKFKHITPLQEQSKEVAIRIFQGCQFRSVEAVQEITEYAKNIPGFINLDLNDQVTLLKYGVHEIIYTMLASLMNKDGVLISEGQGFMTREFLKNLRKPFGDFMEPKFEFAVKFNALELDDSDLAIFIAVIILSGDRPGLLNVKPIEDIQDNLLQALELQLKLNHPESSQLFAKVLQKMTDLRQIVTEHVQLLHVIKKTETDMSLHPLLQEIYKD
The description is as above. Type of series: cell-based. The conditions noted are these: for Emax: CV-1, Relative Response % to maximum effects of the positive control drug, read-out: Max % Mouse PPAR-γ; for EC50: CV-1 cells, GAL4 chimeric receptor, 24 hours. On the procedure: as §1, §2, §3

The target in another series is T3, Human PPAR-γ (Homo sapiens, UniProt P37231).
T3 construct: expressed in transfected cells; host or cells: CV-1 (CCL-70, ATCC)
T3 sequence (P37231 238-503 limits assumed): T2 sequence (P37238 238-503 limits assumed) with N93S, I98V, N146S, V226L, H245Q
The series is described as above. Type of series: cell-based. Particulars: for Emax: CV-1, Relative Response % to maximum effects of the positive control drug, read-out: Max % Human PPAR-γ; for EC50: CV-1 cells, GAL4 chimeric receptor, 24 hours. Here is the method: as §1, §2, §3

The next series has as its target T4, Mouse PPAR-α (Mus musculus, UniProt P23204).
T4 construct: expressed in transfected cells; host or cells: CV-1 (CCL-70, ATCC)
T4 sequence (P23204 239-466 limits assumed): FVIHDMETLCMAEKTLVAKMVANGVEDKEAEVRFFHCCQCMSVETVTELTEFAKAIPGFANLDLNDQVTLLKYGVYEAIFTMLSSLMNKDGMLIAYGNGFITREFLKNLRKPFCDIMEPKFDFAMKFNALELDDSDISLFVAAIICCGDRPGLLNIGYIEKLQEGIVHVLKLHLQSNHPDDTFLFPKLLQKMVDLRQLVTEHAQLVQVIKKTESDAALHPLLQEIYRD
The description is as above. The class given is cell-based. Particulars: for Emax: CV-1, Relative Response % to maximum effects of the positive control drug, read-out: Max % Mouse PPAR-α; for EC50: CV-1 cells, GAL4 chimeric receptor, 24 hours. Here is the method:
as §1, §2, §3

For series [2] the following is noted: 12-week clinical, P>0.05, cited from earlier work.

Numbering of substitutions follows the chain as printed.

What is called EC50 is the concentration that produces a half-maximal response. A higher EC50 goes with a less potent agent.

For `CCO[C@@H](Cc1ccc(OCc2sc(-c3ccc(-c4nnn(COC)n4)cc3)cc2C)cc1)C(=O)O` [Example 32, (S)-2-ethoxy-3-(4-((5-(4-(2-(methoxymethyl)-2H-tetrazol-5-yl)phenyl)-3-methylthiophen-2-yl)methoxy)phenyl)propionic acid], the figures for the “% Inhibition vs. Control” value in series [1] (0.3 mg/kg) and in series [1] (3 mg/kg) were 21% and 61%, respectively. Besides, the “Blood glucose D5” value turned out to be 416 ± 53 mg/dL in series [1] (0.3 mg/kg) and 205 ± 42 mg/dL in series [1] (3 mg/kg). Moreover, the “Blood glucose D0” value in series [1] (0.3 mg/kg) was determined as 500 ± 32 mg/dL; in series [1] (3 mg/kg), 498 ± 30 mg/dL. Further, the Emax stood at 18% on Human PPAR-α, 31% at Mouse PPAR-γ, 32% at Human PPAR-γ and 9% at Mouse PPAR-α. Further, the EC50 on Human PPAR-α is 1.01 µM; on Mouse PPAR-γ, 0.322 µM; on Human PPAR-γ it was 0.111 µM.

As for `CCO[C@@H](Cc1ccc(OCc2sc(-c3ccc(-c4cc(COC)on4)cc3)cc2C)cc1)C(=O)O` [Example 36, (S)-2-ethoxy-3-(4-((5-(4-(5-(methoxymethyl)isoxazol-3-yl)phenyl)-3-methylthiophen-2-yl)methoxy)phenyl)propionic acid], the “% Inhibition vs. Control” value in series [1] (1 mg/kg) stood at 33%; in series [1] (10 mg/kg), 62%. The “Blood glucose D5” value in series [1] (1 mg/kg) worked out at 381 ± 73 mg/dL; in series [1] (10 mg/kg), 278 ± 56 mg/dL. The “Blood glucose D0” value turned out to be 577 ± 15 mg/dL in series [1] (1 mg/kg) and 577 ± 16 mg/dL in series [1] (10 mg/kg). Further, the Emax on Human PPAR-α is 25%; at Mouse PPAR-γ it was 48%; on Human PPAR-γ, 37%; on Mouse PPAR-α, 21%. Besides, the concentration giving a half-maximal response (EC50) turned out to be 2.3 µM on Human PPAR-α, 0.354 µM on Mouse PPAR-γ, 0.041 µM at Human PPAR-γ and 4.3 µM on Mouse PPAR-α.

In the case of `CCO[C@@H](Cc1ccc(OCc2sc(-c3ccc(-c4csc(C)n4)cc3)cc2C)cc1)C(=O)O` [Example 21, (S)-2-ethoxy-3-(4-((3-methyl-5-(4-(2-methylthiazol-4-yl)phenyl)thiophen-2-yl)methoxy)phenyl)propionic acid], the “% Inhibition vs. Control” value in series [1] (0.1 mg/kg) is recorded as 16%; in series [1] (0.3 mg/kg) it was 28%; in series [1] (1 mg/kg), 29%; in series [1] (3 mg/kg), 36%. Besides, the “Blood glucose D5” value is on record as 416 ± 45 mg/dL in series [1] (0.1 mg/kg), 354 ± 67 mg/dL in series [1] (0.3 mg/kg), 354 ± 58 mg/dL in series [1] (1 mg/kg) and 319 ± 63 mg/dL in series [1] (3 mg/kg). Besides, the “Blood glucose D0” value came out at 485 ± 44 mg/dL in series [1] (0.1 mg/kg), 483 ± 38 mg/dL in series [1] (0.3 mg/kg), 482 ± 45 mg/dL in series [1] (1 mg/kg) and 483 ± 45 mg/dL in series [1] (3 mg/kg). The Emax stood at 0% on Human PPAR-α, 18% on Mouse PPAR-γ, 15% at Human PPAR-γ and 4% on Mouse PPAR-α. In addition, the concentration giving a half-maximal response (EC50) at Mouse PPAR-γ is 0.883 µM; on Human PPAR-γ, 0.472 µM.

Turning to `CCO[C@@H](Cc1ccc(OCc2sc(-c3ccc(-c4cc(C)no4)cc3)cc2C)cc1)C(=O)O` [Example 41, (S)-2-ethoxy-3-(4-((3-methyl-5-(4-(3-methylisoxazol-5-yl)phenyl)thiophen-2-yl)methoxy)phenyl)propionic acid], the “% Inhibition vs. Control” value in series [1] (0.1 mg/kg) turned out to be 4%; in series [1] (0.3 mg/kg), 20%; in series [1] (1 mg/kg), 36%; in series [1] (3 mg/kg), 46%. The “Blood glucose D5” value is 455 ± 67 mg/dL in series [1] (0.1 mg/kg), 378 ± 44 mg/dL in series [1] (0.3 mg/kg), 304 ± 13 mg/dL in series [1] (1 mg/kg) and 257 ± 40 mg/dL in series [1] (3 mg/kg). For the same molecule, the “Blood glucose D0” value is recorded as 422 ± 34 mg/dL in series [1] (0.1 mg/kg), 422 ± 36 mg/dL in series [1] (0.3 mg/kg), 422 ± 30 mg/dL in series [1] (1 mg/kg) and 423 ± 35 mg/dL in series [1] (3 mg/kg). For the same molecule, the Emax at Human PPAR-α is 23%; on Mouse PPAR-γ, 34%; at Human PPAR-γ, 30%; on Mouse PPAR-α, 19%. The EC50 at Human PPAR-α was found to be 3.15 µM; on Mouse PPAR-γ, 0.142 µM; on Human PPAR-γ, 0.062 µM; on Mouse PPAR-α it was 6.16 µM.

As for `CCO[C@@H](Cc1ccc(OCc2sc(-c3ccc(-c4cc(C(C)(C)C)on4)cc3)cc2C)cc1)C(=O)O` [Example 48, (S)-3-(4-((5-(4-(5-tert-butylisoxazol-3-yl)phenyl)-3-methylthiophen-2-yl)methoxy)phenyl)-2-ethoxypropionic acid], the “% Inhibition vs. Control” value in series [1] (1 mg/kg) stood at 24%; in series [1] (3 mg/kg), 30%; in series [1] (10 mg/kg), 43%. Moreover, the figures for the “Blood glucose D5” value in series [1] (1 mg/kg), in series [1] (3 mg/kg) and in series [1] (10 mg/kg) were 375 ± 25 mg/dL, 347 ± 70 mg/dL and 280 ± 40 mg/dL, respectively. Also, the “Blood glucose D0” value was found to be 452 ± 22 mg/dL in series [1] (1 mg/kg), 453 ± 20 mg/dL in series [1] (3 mg/kg) and 453 ± 43 mg/dL in series [1] (10 mg/kg). For the same molecule, the Emax on Human PPAR-α is 22%; at Mouse PPAR-γ it was 24%; at Human PPAR-γ it was 27%; at Mouse PPAR-α it was 25%. Further, the concentration for a half-maximal effect (EC50) was found to be 2.83 µM at Human PPAR-α, 0.031 µM at Mouse PPAR-γ, 0.007 µM on Human PPAR-γ and 12.1 µM at Mouse PPAR-α.

Take `CC(=O)NCCOC(=O)[C@H](Oc1cccc(C(F)(F)F)c1)c1ccc(Cl)cc1` [metaglidasen]: the edema incidence rate in series [2] (20% in control group) is 7.2%. For the same molecule, the body weight result in series [2] (+1.3 kg in control group) was “+0.6 kg”.

These data come from patent US20100063041A1, “NOVEL PHENYLPROPIONIC ACID DERIVATIVES AS PEROXISOME PROLIFERATOR-ACTIVATED GAMMA RECEPTOR MODULATORS, METHOD OF THE SAME, AND PHARMACEUTICAL COMPOSITION COMPRISING THE SAME” (priority 2007, published 2010).
